Assay results published in patent US10280156B2, “Heteroaromatic chalcone derivatives and their medical use” (Medizinische Universität Wien, priority 2014, dated 2019).

Columns and labels:
MEC1 = assay: Viability test (CellTiter-Blue/EZ4U) on MEC1 cells, 48 h; format: cell-based, human; details: Homo sapiens, MEC1, 48 h, 48 h incubation; nd = no significant cytotoxic activity up to 100 μM
Protocol: (§1) JURKAT and CCRF-CEM (T-cell acute lymphoblastic leukemia), HL60 and K562 representing acute and chronic myeloid leukemia, respectively, the chronic lymphocytic leukemia cell line MEC-1, and the diffuse large B-cell lymphoma cell line U-2940 were cultured in Gibco RPMI 1640+GlutaMAX (Life Technologies, Carlsbad, Calif., USA) supplemented with 10% fetal bovine serum gold (FBS gold; PAA Laboratories, Pasching, Austria) and 1% PenStrep (100 U/ml penicillin and 100 μg/ml streptomycin; PAA Laboratories), and maintained at 37° C. in humidified atmosphere with 5% CO2. The diffuse large B-cell lymphoma cell line OCI-LY7 was cultured in Gibco IMDM+GlutaMAX and 25 mM HEPES (Life Technologies) containing 20% FBS gold and 1% PenStrep.
(§2) All experiments with hematological cell lines were done using phenol red-free RPMI 1640+L-glutamine (PAA Laboratories) supplemented with 1% PenStrep and 10% FBS gold, except experiments with OCI-Ly7 which were carried out in Gibco IMEM+GlutaMAX and 25 mM HEPES containing 20% FBS gold and 1% PenStrep. Cells were incubated in triplicates with increasing concentrations of the compounds for 48 h, changes in viability were determined using the cell proliferation and cytotoxicity assays EZ4U (Biomedica Group, Austria) and CellTiter-Blue Cell Viability Assay (Promega, Madison, Wis., USA) following instructions of the manufacturers. IC50 values were calculated from two independent experiments using GraphPad Prism 5 software.
(§3) Initially, compounds were biologically tested in six concentration steps (0.1 μM; 1 μM; 5 μM; 10 μM; 50 μM; and 100 μM) using the CellTiter-Blue Cell Viability Assay (Promega, Madison, Wis., USA) and an incubation time of 48 hours. […] IC50 values were calculated from at least two independent experiments with 3 replicates each. In order to evaluate the biologic activity of the new compounds, cytotoxicity was compared to that of fludarabine, an already approved drug for the treatment of various B-cell malignancies. […] Differences in IC50 values for the different cell types can be explained by the biological and genetic particularities of each subtype of B-cell Non-Hodgkin lymphoma (Stacchini A et al. Leukemia Res 1999, 23, 127-136; Sambade C et al. Int J Cancer 2006, 118, 555-563; Chang H et al. Leukemia lymphoma 1995, 19, 165-171; Tweeddale M E et al. Blood 1987, 69, 1307-1314; Tweeddale M et al. Blood 1989, 74, 572-578).

U-2940 = assay: Viability test on U-2940 cells, 48 h; format: cell-based, human; details: 48 h incubation, nd = no significant cytotoxic activity up to 100 μM
Protocol: as §1, §2, §3

OCI-Ly7 = assay: Viability test on OCI-Ly7 cells, 48 h; format: cell-based, human; details: Homo sapiens, OCI-Ly7, 48 h, 48 h incubation; nd = no significant cytotoxic activity up to 100 μM
Protocol: as §1, §2, §3

M2-10B4 = assay: Viability test on mouse fibroblast cell line M2-10B4, 48 h; format: cell-based; details: 48 h incubation, mouse fibroblast cell line
Protocol: as §2
Structurally seen, the small molecule compound 1 represents a typical chalcone scaffold. It is characterized by an ortho-ethoxy-substituted phenyl part as ring A and a 2-naphthyl moiety symbolizing ring B. The focus of the present study was to guide the systematic identification of a growth inhibitor with specificity to neoplastic cells, as cytotoxicity towards healthy cells is mostly associated with adverse effects, which can be related to morbidity and mortality of the patient (Milligan D W et al. Brit J Haematol 2006, 135, 450-474). To discriminate in vitro between structural elements necessary for potent cytotoxicity towards tumor cells which, at the same time, clearly show less activity on normal cells, the compounds were additionally tested on the murine bone marrow fibroblast cell line M2-10B4. This cell line is regularly used as feeder layer when cultured with patient cells providing additional support and survival signals in particular in drug screens (Kurtova A V et al. Blood 2009, 114, 4441-4450).
as §3

| Structure (SMILES) | IC50 (MEC1) [nM] | IC50 (U-2940; Homo sapiens, U-2940, 48 h) [nM] | IC50 (OCI-Ly7) [nM] | IC50 (M2-10B4; Mus musculus, M210B4, 48 h) [nM] | melting point [°C] | IC50 (M2-10B4) [nM] | IC50 (U-2940) [nM] |
| --- | --- | --- | --- | --- | --- | --- | --- |
| CCOc1ccccc1C(=O)/C=C/c1ccc2c(c1)OCO2 [Compound 9, 3-(1,3-Benzodioxol-5-yl)-1-(2-ethoxyphenyl)-2-propen-1-one] | 1100 | 9490 | 130 | > 100000 | 65 to 70 | – | – |
| CCOc1ccccc1C(=O)/C=C/c1cccc2ccccc12 [Compound 10, 1-(2-Ethoxyphenyl)-3-(1-naphthyl)-2-propen-1-one] | 1900 | 7370 | 1480 | 14000 | 109 to 110 | 17000 | – |
| CCOc1ccccc1C(=O)/C=C/c1ccc2ccccc2c1 [Compound 1, 3-(2-Napthyl)-1-(2-ethoxyphenyl)-2-propen-1-one] | 60 | 2430 | 60 | 7800 | 96 to 97 | – | 4430 |
| CCOc1ccccc1C(=O)/C=C/c1ccc2sccc2c1 [Compound 13, 3-(5-Benzo[b]thienyl)-1-(2-ethoxyphenyl)-2-propen-1-one] | 340 | 9050 | 340 | 21100 | 104 to 106 | – | – |
| CC(C)Oc1ccccc1C(=O)/C=C/c1ccc2ccccc2c1 [Compound 5] | 1170 | 11100 | 150 | > 100000 | 82 to 85 | – | – |
